{"source": "patent US20080119448A1", "about": "“Methods of treating an ocular allergy with low dose dexamethasone” (priority 2006, published 2008)", "origin": "cited, not measured here", "conditions": "dexamethasone at 0.1%", "data": [{"smiles": "C[C@@H]1C[C@H]2[C@@H]3CCC4=CC(=O)C=C[C@]4(C)[C@@]3(F)[C@@H](O)C[C@]2(C)[C@@]1(O)C(=O)CO", "note": "[dexamethasone]", "values": [{"measurement": "effect on intraocular pressure", "result": "increase in intraocular pressure"}]}]}
